Data reported in ChEMBL document CHEMBL4665869, “New thiazolopyrimidine as anticancer agents: Synthesis, biological evaluation, DNA binding, molecular modeling and ADMET study” (Bioorg Med Chem Lett, 2020).

Assays:
DNA = experiment: Displacement of methyl green from DNA (unknown origin) assessed as DNA intercalation after 24 hrs by colorimetric assay; type: nucleic-acid assay
NCI-H23 = experiment: Growth inhibition of human NCI-H23 cells at 10 uM relative to control; type: functional; details: read-out: GI
HOP-92 = experiment: Growth inhibition of human HOP-92 cells at 10 uM relative to control; type: functional; details: read-out: GI
M14 = experiment: Growth inhibition of human M14 cells at 10 uM relative to control; type: functional; details: read-out: GI
LOX IMVI = experiment: Growth inhibition of human LOX IMVI cells at 10 uM relative to control; type: functional; details: read-out: GI
KM12 = experiment: Growth inhibition of human KM12 cells at 10 uM relative to control; type: functional; details: read-out: GI
PC-3 = experiment: Growth inhibition of human PC-3 cells at 10 uM relative to control; type: functional; details: read-out: GI
NCI-H522 = experiment: Growth inhibition of human NCI-H522 cells at 10 uM relative to control; type: functional; details: read-out: GI
NCI-H322M = experiment: Growth inhibition of human NCI-H322M cells at 10 uM relative to control; type: functional; details: read-out: GI
SNB-19 = experiment: Growth inhibition of human SNB-19 cells at 10 uM relative to control; type: functional; details: read-out: GI
MDA-MB-231 = experiment: Growth inhibition of human MDA-MB-231 cells at 10 uM relative to control; type: functional; details: read-out: GI
BT-549 = experiment: Growth inhibition of human BT-549 cells at 10 uM relative to control; type: functional; details: read-out: GI
DU-145 = experiment: Growth inhibition of human DU-145 cells at 10 uM relative to control; type: functional; details: read-out: GI
A549 = experiment: Growth inhibition of human A549 cells at 10 uM relative to control; type: functional; details: read-out: GI
CAKI-1 = experiment: Growth inhibition of human CAKI-1 cells at 10 uM relative to control; type: functional; details: read-out: GI
UACC-62 = experiment: Growth inhibition of human UACC-62 cells at 10 uM relative to control; type: functional; details: read-out: GI
NCI-H226 = experiment: Growth inhibition of human NCI-H226 cells at 10 uM relative to control; type: functional; details: read-out: GI
SK-OV-3 = experiment: Growth inhibition of human SK-OV-3 cells at 10 uM relative to control; type: functional; details: read-out: GI
SNB-75 = experiment: Growth inhibition of human SNB-75 cells at 10 uM relative to control; type: functional; details: read-out: GI
NCI-H460 = experiment: Growth inhibition of human NCI-H460 cells at 10 uM relative to control; type: functional; details: read-out: GI
NCI/ADR-RES = experiment: Growth inhibition of human NCI/ADR-RES cells at 10 uM relative to control; type: functional; details: read-out: GI
Malme-3M = experiment: Growth inhibition of human Malme-3M cells at 10 uM relative to control; type: functional; details: read-out: GI
MDA-MB-468 = experiment: Growth inhibition of human MDA-MB-468 cells at 10 uM relative to control; type: functional; details: read-out: GI
ACHN = experiment: Growth inhibition of human ACHN cells at 10 uM relative to control; type: functional; details: read-out: GI
SK-MEL-2 = experiment: Growth inhibition of human SK-MEL-2 cells at 10 uM relative to control; type: functional; details: read-out: GI
COLO 205 = experiment: Growth inhibition of human COLO 205 cells at 10 uM relative to control; type: functional; details: read-out: GI
SF-295 = experiment: Growth inhibition of human SF-295 cells at 10 uM relative to control; type: functional; details: read-out: GI
786-0 = experiment: Growth inhibition of human 786-0 cells at 10 uM relative to control; type: functional; details: read-out: GI
A498 = experiment: Growth inhibition of human A498 cells at 10 uM relative to control; type: functional; details: read-out: GI
HCT-116 = experiment: Growth inhibition of human HCT-116 cells at 10 uM relative to control; type: functional; details: read-out: GI
HCT-15 = experiment: Growth inhibition of human HCT-15 cells at 10 uM relative to control; type: functional; details: read-out: GI
U-251 = experiment: Growth inhibition of human U-251 cells at 10 uM relative to control; type: functional; details: read-out: GI
RPMI-8226 = experiment: Growth inhibition of human RPMI-8226 cells at 10 uM relative to control; type: functional; details: read-out: GI
SK-MEL-5 = experiment: Growth inhibition of human SK-MEL-5 cells at 10 uM relative to control; type: functional; details: read-out: GI
SW-620 = experiment: Growth inhibition of human SW-620 cells at 10 uM relative to control; type: functional; details: read-out: GI
RXF 393 = experiment: Growth inhibition of human RXF 393 cells at 10 uM relative to control; type: functional; details: read-out: GI
OVCAR-8 = experiment: Growth inhibition of human OVCAR-8 cells at 10 uM relative to control; type: functional; details: read-out: GI
HOP-62 = experiment: Growth inhibition of human HOP-62 cells at 10 uM relative to control; type: functional; details: read-out: GI
CCRF-CEM = experiment: Growth inhibition of human CCRF-CEM cells at 10 uM relative to control; type: functional; details: read-out: GI
SN12C = experiment: Growth inhibition of human SN12C cells at 10 uM relative to control; type: functional; details: read-out: GI
OVCAR-4 = experiment: Growth inhibition of human OVCAR-4 cells at 10 uM relative to control; type: functional; details: read-out: GI
MCF7 = experiment: Growth inhibition of human MCF7 cells at 10 uM relative to control; type: functional; details: read-out: GI
MOLT-4 = experiment: Growth inhibition of human MOLT-4 cells at 10 uM relative to control; type: functional; details: read-out: GI
IGROV-1 = experiment: Growth inhibition of human IGROV-1 cells at 10 uM relative to control; type: functional; details: read-out: GI
K562 = experiment: Growth inhibition of human K562 cells at 10 uM relative to control; type: functional; details: read-out: GI
Hs-578T = experiment: Growth inhibition of human Hs-578T cells at 10 uM relative to control; type: functional; details: read-out: GI
TK-10 = experiment: Growth inhibition of human TK-10 cells at 10 uM relative to control; type: functional; details: read-out: GI
HT-29 = experiment: Growth inhibition of human HT-29 cells at 10 uM relative to control; type: functional; details: read-out: GI
SR = experiment: Growth inhibition of human SR cells at 10 uM relative to control; type: functional; details: read-out: GI
SK-MEL-28 = experiment: Growth inhibition of human SK-MEL-28 cells at 10 uM relative to control; type: functional; details: read-out: GI
SF-539 = experiment: Growth inhibition of human SF-539 cells at 10 uM relative to control; type: functional; details: read-out: GI
HCC 2998 = experiment: Growth inhibition of human HCC 2998 cells at 10 uM relative to control; type: functional; details: read-out: GI
HL-60(TB) = experiment: Growth inhibition of human HL-60(TB) cells at 10 uM relative to control; type: functional; details: read-out: GI
UO-31 = experiment: Growth inhibition of human UO-31 cells at 10 uM relative to control; type: functional; details: read-out: GI
SF-268 = experiment: Growth inhibition of human SF-268 cells at 10 uM relative to control; type: functional; details: read-out: GI
OVCAR-5 = experiment: Growth inhibition of human OVCAR-5 cells at 10 uM relative to control; type: functional; details: read-out: GI
MDA-MB-435 = experiment: Growth inhibition of human MDA-MB-435 cells at 10 uM relative to control; type: functional; details: read-out: GI
T47D = experiment: Growth inhibition of human T47D cells at 10 uM relative to control; type: functional; details: read-out: GI

CC1=CSC2=NC(/C=C/c3ccc(Cl)cc3)=CC(c3ccc(Cl)cc3)N12 (centres undefined)
50.91 µg/mL: IC50 (DNA)

Cc1ccc(/C=C/C2=CC(c3ccc(C)cc3)N3C=CSC3=N2)cc1 (centres undefined)
62.74 µg/mL: IC50 (DNA)

COc1ccc(/C=C/C2=CC(c3ccc(OC)cc3)N3C=C(C)SC3=N2)cc1 (centres undefined)
41.37 µg/mL: IC50 (DNA)

COc1ccc(/C=C/C2=CC(c3ccc(OC)c(OC)c3)N3C(C)=CSC3=N2)cc1OC (centres undefined)
11.7%: inhibition of growth at 10 µM (UO-31)
< 10%: inhibition of growth at 10 µM (NCI-H23) | inhibition of growth at 10 µM (M14) | inhibition of growth at 10 µM (LOX IMVI) | inhibition of growth at 10 µM (KM12) | inhibition of growth at 10 µM (PC-3) | inhibition of growth at 10 µM (NCI-H522) | inhibition of growth at 10 µM (NCI-H322M) | inhibition of growth at 10 µM (SNB-19) | inhibition of growth at 10 µM (MDA-MB-231) | inhibition of growth at 10 µM (BT-549) | inhibition of growth at 10 µM (DU-145) | inhibition of growth at 10 µM (A549) | inhibition of growth at 10 µM (CAKI-1) | inhibition of growth at 10 µM (UACC-62) | inhibition of growth at 10 µM (NCI-H226) | inhibition of growth at 10 µM (SK-OV-3) | inhibition of growth at 10 µM (SNB-75) | inhibition of growth at 10 µM (NCI-H460) | inhibition of growth at 10 µM (NCI/ADR-RES) | inhibition of growth at 10 µM (Malme-3M) | inhibition of growth at 10 µM (MDA-MB-468) | inhibition of growth at 10 µM (ACHN) | inhibition of growth at 10 µM (SK-MEL-2) | inhibition of growth at 10 µM (COLO 205) | inhibition of growth at 10 µM (SF-295) | inhibition of growth at 10 µM (786-0) | inhibition of growth at 10 µM (HCT-116) | inhibition of growth at 10 µM (HCT-15) | inhibition of growth at 10 µM (U-251) | inhibition of growth at 10 µM (RPMI-8226) | inhibition of growth at 10 µM (SK-MEL-5) | inhibition of growth at 10 µM (SW-620) | inhibition of growth at 10 µM (RXF 393) | inhibition of growth at 10 µM (OVCAR-8) | inhibition of growth at 10 µM (HOP-62) | inhibition of growth at 10 µM (CCRF-CEM) | inhibition of growth at 10 µM (SN12C) | inhibition of growth at 10 µM (OVCAR-4) | inhibition of growth at 10 µM (MCF7) | inhibition of growth at 10 µM (MOLT-4) | inhibition of growth at 10 µM (IGROV-1) | inhibition of growth at 10 µM (K562) | inhibition of growth at 10 µM (Hs-578T) | inhibition of growth at 10 µM (TK-10) | inhibition of growth at 10 µM (HT-29) | inhibition of growth at 10 µM (SR) | inhibition of growth at 10 µM (SK-MEL-28) | inhibition of growth at 10 µM (SF-539) | inhibition of growth at 10 µM (HCC 2998) | inhibition of growth at 10 µM (HL-60(TB)) | inhibition of growth at 10 µM (SF-268) | inhibition of growth at 10 µM (OVCAR-5) | inhibition of growth at 10 µM (MDA-MB-435) | inhibition of growth at 10 µM (T47D)
72.54 µg/mL: IC50 (DNA)
17.6%: inhibition of growth at 10 µM (A498)
18%: inhibition of growth at 10 µM (HOP-92)

CC1=CSC2=NC(/C=C/c3ccc(C)cc3)=CC(c3ccc(C)cc3)N12 (centres undefined)
83.41 µg/mL: IC50 (DNA)

COc1ccc(/C=C/C2=CC(c3ccc(OC)c(OC)c3)N3C=C(C)SC3=N2)cc1OC (centres undefined)
58.32 µg/mL: IC50 (DNA)

CCOC(=O)C1=CSC2=NC(/C=C/c3cccs3)=CC(c3cccs3)N12 (centres undefined)
66.01 µg/mL: IC50 (DNA)
